Data published in ChEMBL document CHEMBL3351618, “Prospects of an alternative treatment against Trypanosoma cruzi based on abietic acid derivatives show promising results in Balb/c mouse model” (Eur J Med Chem, 2015).
pIC50: −log10 of the molar value. The source made the active and inactive calls. The rule behind the calls is not given here.

Experiments:
Plasmodium falciparum = assay: Antiplasmodial activity against chloroquine-resistant Plasmodium falciparum 2/K1-strain cultured in human red blood cells assessed as infected cells after 72 hrs by malstat method; format: functional, organism-based; conditions: 2/K1, 72 h
[1] = Selectivity index, ratio of IC50 for human MRC5 cells to IC50 for Plasmodium falciparum 2/K 1-strain; format: toxicity, cell-based; conditions: read-out: Ratio IC50
Trypanosoma brucei = assay: Antitrypanosomal activity against trypomastigote Trypanosoma brucei Squib-427 strain cultured in MRC-5 cells assessed as parasite growth after 7 days by beta-galactosidase assay; format: functional, organism-based; conditions: Squib-427, MRC5, 168 h
[2] = Selectivity index, ratio of IC50 for human MRC5 cells to IC50 for Trypanosoma brucei Squib-427; format: toxicity, cell-based; conditions: read-out: Ratio IC50
Trypanosoma cruzi [3] = assay: Antiparasitic activity against trypomastigote form of Trypanosoma cruzi IRHOD/CO/2008/SN3 infected in BALB/c mouse acute chagas disease model assessed as parasite reduction in blood at 5 mg/kg, ip measured on day 40 post infection; format: functional; parameters: scale not given: the % may be the effect or the level left; conditions: route intraperitoneal
Trypanosoma cruzi [4] = assay: Antiparasitic activity against trypomastigote form of Trypanosoma cruzi IRHOD/CO/2008/SN3 infected in BALB/c mouse acute chagas disease model assessed as parasitemia reactivation at 5 mg/kg, ip after 60 days immunosuppressed with cyclophosphamide monohydrate measured up to day 120 post infection (reference value: 80.3%); format: functional; conditions: route intraperitoneal
Trypanosoma cruzi [5] = assay: Trypanocidal activity against epimastigote Trypanosoma cruzi IRHOD/CO/2008/SN3; format: functional, organism-based
Trypanosoma cruzi [6] = assay: Trypanocidal activity against intracellular amastigote form of Trypanosoma cruzi IRHOD/CO/2008/SN3 in african green monkey Vero cells; format: functional, organism-based; conditions: IRHOD/CO/2008/SN3, Vero
Vero = assay: Cytotoxicity against african green monkey Vero cells after 72 hrs; format: cell-based; conditions: Chlorocebus sabaeus
[7] = Selectivity index, ratio of IC50 for african green monkey Vero cells to IC50 for epimastigote Trypanosoma cruzi IRHOD/CO/2008/SN3; format: toxicity, cell-based; conditions: read-out: Ratio IC50
[8] = Selectivity index, ratio of IC50 for african green monkey Vero cells to IC50 for intracellular amastigote form of Trypanosoma cruzi IRHOD/CO/2008/SN3; format: toxicity, cell-based; conditions: read-out: Ratio IC50
Leishmania donovani [9] = assay: Antileishmanial activity against intracellular amastigote stage of Leishmania donovani; format: functional, organism-based
L6 = assay: Cytotoxicity against rat L6 cells; format: cell-based
Trypanosoma cruzi [10] = assay: Antiparasitic activity against trypomastigote form of Trypanosoma cruzi IRHOD/CO/2008/SN3 infected in BALB/c mouse acute chagas disease model assessed as parasite reduction in blood; format: functional, organism-based; conditions: IRHOD/CO/2008/SN3, Blood
[11] = Selectivity index, ratio of IC50 for african green monkey Vero cells to IC50 for trypomastigote form of Trypanosoma cruzi IRHOD/CO/2008/SN3; format: toxicity, cell-based; conditions: read-out: Ratio IC50
Trypanosoma cruzi [12] = assay: Increase in succinate catabolites in epimastigote Trypanosoma cruzi at IC25 concentration after 96 hrs; format: functional
Trypanosoma cruzi [13] = assay: Decrease in pyruvate catabolites in epimastigote Trypanosoma cruzi at IC25 concentration after 96 hrs; format: functional
Trypanosoma cruzi [14] = assay: Decrease in acetate catabolites in epimastigote Trypanosoma cruzi at IC25 concentration after 96 hrs; format: functional
Trypanosoma cruzi [15] = assay: Decrease in L-alanine catabolites in epimastigote Trypanosoma cruzi at IC25 concentration after 96 hrs; format: functional
Trypanosoma cruzi [16] = assay: Decrease in D-lactate catabolites in epimastigote Trypanosoma cruzi at IC25 concentration after 96 hrs; format: functional
Trypanosoma cruzi [17] = assay: Trypanocidal activity against epimastigote Trypanosoma cruzi IRHOD/CO/2008/SN3 infected in african green monkey Vero cells assessed as decrease in rate of infection at IC25 concentration on day 10; format: functional
Trypanosoma cruzi [18] = assay: Trypanocidal activity against epimastigote Trypanosoma cruzi IRHOD/CO/2008/SN3 infected in african green monkey Vero cells assessed as decrease in average number of amastigotes per infected cell at IC25 concentration on day 10; format: functional; parameters: scale not given: the % may be the effect or the level left
Trypanosoma cruzi [19] = assay: Antiparasitic activity against trypomastigote form of Trypanosoma cruzi IRHOD/CO/2008/SN3 infected in BALB/c mouse acute chagas disease model assessed as parasite reduction in blood at 25 mg/kg, ip measured on day 40 post infection; format: functional; conditions: IRHOD/CO/2008/SN3, Blood, 960 h, route intraperitoneal
Trypanosoma cruzi [20] = assay: Antiparasitic activity against trypomastigote form of Trypanosoma cruzi IRHOD/CO/2008/SN3 infected in BALB/c mouse acute chagas disease model assessed as parasitemia reactivation at 25 mg/kg, ip after 60 days immunosuppressed with cyclophosphamide monohydrate measured up to day 120 post infection (reference value: 80.3%); format: functional; conditions: route intraperitoneal
Trypanosoma cruzi [21] = assay: Antiparasitic activity against trypomastigote form of Trypanosoma cruzi IRHOD/CO/2008/SN3 infected in BALB/c mouse acute chagas disease model assessed as heart free from parasite at 25 mg/kg, ip after 60 days immunosuppressed with cyclophosphamide monohydrate measured up to day 120 post infection by PCR analysis; format: functional; conditions: route intraperitoneal
Mus musculus [22] = assay: Toxicity in Trypanosoma cruzi IRHOD/CO/2008/SN3 infected in BALB/c mouse acute chagas disease model assessed as kidney marker urea level at 25 mg/kg, ip after 60 days immunosuppressed with cyclophosphamide monohydrate measured up to day 120 post infection […]; format: organism-based; parameters: dose 25 mg/kg, route intraperitoneal; conditions: in vivo, 1440 h
Mus musculus [23] = assay: Toxicity in Trypanosoma cruzi IRHOD/CO/2008/SN3 infected in BALB/c mouse acute chagas disease model assessed as kidney marker uric acid level at 25 mg/kg, ip after 60 days immunosuppressed with cyclophosphamide monohydrate measured up to day 120 post infection […]; format: organism-based; parameters: dose 25 mg/kg, route intraperitoneal; conditions: in vivo, 1440 h
Mus musculus [24] = assay: Toxicity in Trypanosoma cruzi IRHOD/CO/2008/SN3 infected in BALB/c mouse acute chagas disease model assessed as heart marker CK-MB level at 25 mg/kg, ip after 60 days immunosuppressed with cyclophosphamide monohydrate measured up to day 120 post infection […]; format: organism-based; parameters: dose 25 mg/kg, route intraperitoneal; conditions: in vivo, 1440 h
Mus musculus [25] = assay: Toxicity in Trypanosoma cruzi IRHOD/CO/2008/SN3 infected in BALB/c mouse acute chagas disease model assessed as heart marker LDH level at 25 mg/kg, ip after 60 days immunosuppressed with cyclophosphamide monohydrate measured up to day 120 post infection […]; format: organism-based; parameters: dose 25 mg/kg, route intraperitoneal; conditions: in vivo, 1440 h
Mus musculus [26] = assay: Toxicity in Trypanosoma cruzi IRHOD/CO/2008/SN3 infected in BALB/c mouse acute chagas disease model assessed as liver marker AST/GOT level at 25 mg/kg, ip after 60 days immunosuppressed with cyclophosphamide monohydrate measured up to day 120 post infection […]; format: organism-based; parameters: dose 25 mg/kg, route intraperitoneal; conditions: in vivo, 1440 h
Mus musculus [27] = assay: Toxicity in Trypanosoma cruzi IRHOD/CO/2008/SN3 infected in BALB/c mouse acute chagas disease model assessed as liver marker ALT/GPT level at 25 mg/kg, ip after 60 days immunosuppressed with cyclophosphamide monohydrate measured up to day 120 post infection […]; format: organism-based; parameters: dose 25 mg/kg, route intraperitoneal; conditions: in vivo, 1440 h
Mus musculus [28] = assay: Toxicity in Trypanosoma cruzi IRHOD/CO/2008/SN3 infected in BALB/c mouse acute chagas disease model assessed as total bilirubuin level at 25 mg/kg, ip after 60 days immunosuppressed with cyclophosphamide monohydrate measured up to day 120 post infection […]; format: organism-based; parameters: dose 25 mg/kg, route intraperitoneal; conditions: in vivo, 1440 h
Mus musculus [29] = assay: Toxicity in Trypanosoma cruzi IRHOD/CO/2008/SN3 infected in BALB/c mouse acute chagas disease model assessed as alkalyne phosphatase level at 25 mg/kg, ip after 60 days immunosuppressed with cyclophosphamide monohydrate measured up to day 120 post infection […]; format: organism-based; parameters: dose 25 mg/kg, route intraperitoneal; conditions: in vivo, 1440 h
Trypanosoma cruzi [30] = assay: Trypanocidal activity against epimastigote Trypanosoma cruzi IRHOD/CO/2008/SN3 assessed as morphological disturbance at IC25 concentration; format: functional, organism-based
[31] = biological target: Superoxide dismutase [Cu-Zn] (Homo sapiens, UniProt P00441); assay: Inhibition of CuZn-SOD in human erythrocytes; format: cell-based
Sequence of Superoxide dismutase [Cu-Zn] (P00441 whole entry): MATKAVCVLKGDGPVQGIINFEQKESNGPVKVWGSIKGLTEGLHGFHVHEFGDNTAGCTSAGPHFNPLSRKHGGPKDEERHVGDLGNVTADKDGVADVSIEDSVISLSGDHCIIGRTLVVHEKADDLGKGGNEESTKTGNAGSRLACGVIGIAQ

[32] = Inhibition of Fe-SOD in Trypanosoma cruzi epimastigote
Trypanosoma cruzi [33] = assay: Inhibition of Fe-SOD in Trypanosoma cruzi epimastigote at 80 uM
Trypanosoma cruzi [34] = assay: Increase in pyruvate catabolites in epimastigote Trypanosoma cruzi at IC25 concentration after 96 hrs; format: functional
Trypanosoma cruzi [35] = assay: Increase in acetate catabolites in epimastigote Trypanosoma cruzi at IC25 concentration after 96 hrs; format: functional
Trypanosoma cruzi [36] = assay: Increase in L-alanine catabolites in epimastigote Trypanosoma cruzi at IC25 concentration after 96 hrs; format: functional
Trypanosoma cruzi [37] = assay: Increase in D-lactate catabolites in epimastigote Trypanosoma cruzi at IC25 concentration after 96 hrs; format: functional
Leishmania donovani [38] = assay: Antileishmanial activity against intracellular amastigote form of Leishmania donovani; format: functional, organism-based
Leishmania major = assay: Antileishmanial activity against Leishmania major; format: functional, organism-based

CC(C)C1=CC2=C[C@H](O)[C@H]3C(C)(C)C(O)C=C[C@]3(C)C2=C(O)C1=O (some centres not stated)
pIC50 (Plasmodium falciparum): 5.04 | selectivity ratio [1]: 10.4 | pIC50 (Trypanosoma brucei): 5.72 | selectivity ratio [2]: 50.5

O=C(Cn1ccnc1[N+](=O)[O-])NCc1ccccc1 [BENZNIDAZOLE]
Activity (Trypanosoma cruzi [3]): 16.7% | Activity (Trypanosoma cruzi [4]): 36%

CC(C)c1cc2c(c(Br)c1O)[C@@]1(C)CCCC(C)(C)[C@@H]1CC2
pIC50 (Trypanosoma cruzi [5]): 4.30 | pIC50 (Trypanosoma cruzi [6]): 4.38 | pIC50 (Vero): 3.74 | selectivity ratio [7]: 3.69 | selectivity ratio [8]: 4.38

COc1c(C(C)C)cc2c(c1O)[C@@]1(C(=O)O)CCCC(C)(C)[C@@H]1CC2
pIC50 (Leishmania donovani [9]): 6.12 | pIC50 (L6): 4.76

CC(C)c1cc2c(cc1O)[C@@]1(C)CCCC(C)(C)[C@@H]1CC2=O [SUGIOL]
pIC50 (Trypanosoma cruzi [5]): 4.48 | pIC50 (Trypanosoma cruzi [6]): 4.61 | pIC50 (Vero): 4.34 | selectivity ratio [7]: 1.37 | selectivity ratio [8]: 1.84

CC(C)c1cc2c(cc1O)[C@@]1(C)CCC[C@@](C)(CO)[C@@H]1[C@@H](O)C2=O
pIC50 (Trypanosoma cruzi [5]): 4.73 | pIC50 (Trypanosoma cruzi [6]): 5.15 | pIC50 (Trypanosoma cruzi [10]): 4.22 | pIC50 (Vero): 3.65 | selectivity ratio [7]: 11.8 | selectivity ratio [8]: 31.4 | selectivity ratio [11]: 3.7 | Activity (Trypanosoma cruzi [12]): 17.1% | inhibition (INH) (Trypanosoma cruzi [13]): 1.4% | inhibition (INH) (Trypanosoma cruzi [14]): 0.3% | inhibition (INH) (Trypanosoma cruzi [15]): 7.7% | inhibition (INH) (Trypanosoma cruzi [16]): 6.4% | inhibition (INH) (Trypanosoma cruzi [17]): 80% | Activity (Trypanosoma cruzi [18]): 38% | inhibition in vivo at 25 mg/kg (Trypanosoma cruzi [19]): 45% | Activity (Trypanosoma cruzi [20]): 9.8% | Activity (Trypanosoma cruzi [21]): 50% | Activity (Mus musculus [22]): < 10% | Activity (Mus musculus [23]): < 10% | Activity (Mus musculus [24]): < 10% | Activity (Mus musculus [25]): > 10% | Activity (Mus musculus [26]): > 10% | Activity (Mus musculus [27]): < 10% | Activity (Mus musculus [28]): < 10% | Activity (Mus musculus [29]): < 10% | Activity (Trypanosoma cruzi [30]): Active | pIC50 [31]: 4.25 | pIC50 [32]: 4.38 | inhibition (Trypanosoma cruzi [33]): 100%

COC(=O)[C@]1(C)CCC[C@]2(C)c3ccc(O)cc3CC[C@@H]12
pIC50 (Trypanosoma cruzi [5]): 4.41 | pIC50 (Trypanosoma cruzi [6]): 4.57 | pIC50 (Trypanosoma cruzi [10]): 4.05 | pIC50 (Vero): 3.32 | selectivity ratio [7]: 12.1 | selectivity ratio [8]: 17.5 | selectivity ratio [11]: 5.3 | Activity (Trypanosoma cruzi [12]): 30% | Activity (Trypanosoma cruzi [34]): 2.3% | Activity (Trypanosoma cruzi [35]): 6.3% | Activity (Trypanosoma cruzi [36]): 0.5% | Activity (Trypanosoma cruzi [37]): 0.4% | Activity (Trypanosoma cruzi [18]): 41% | inhibition in vivo at 25 mg/kg (Trypanosoma cruzi [19]): 22% | Activity (Trypanosoma cruzi [20]): 48.1% | Activity (Trypanosoma cruzi [21]): 17% | Activity (Mus musculus [22]): < 10% | Activity (Mus musculus [25]): < 10% | Activity (Mus musculus [26]): < 10% | Activity (Mus musculus [27]): < 10% | Activity (Mus musculus [28]): < 10% | Activity (Mus musculus [29]): < 10% | Activity (Trypanosoma cruzi [30]): inactive | pIC50 [31]: 4.23 | pIC50 [32]: 4.36 | inhibition (Trypanosoma cruzi [33]): 100%

CC(C)C1=CC(=O)C2=C(CC[C@H]3C(C)(C)CCC[C@]23C)C1=O
pIC50 (Leishmania donovani [38]): 6.92 | pIC50 (Leishmania major): 6.74

CC(=O)OC[C@@]1(C)CCC[C@]2(C)c3cc(O)c(C(C)C)cc3C(=O)C[C@@H]12
pIC50 (Trypanosoma cruzi [5]): 4.58 | pIC50 (Trypanosoma cruzi [6]): 4.59 | pIC50 (Vero): 4.14 | selectivity ratio [7]: 2.8 | selectivity ratio [8]: 2.8

COC1=C(C(C)C)C(=O)C2=C(O)C(=O)C3=C(C=CCC3(C)C)C2=C1
pIC50 (Leishmania donovani [38]): 6.77 | pIC50 (Leishmania major): 6.54
